According to patent EP0291321A2, “Element and method for determination of creatinine or creatine” (EASTMAN KODAK COMPANY (a New Jersey corporation), priority 1987, dated 1988):

Molecular target: T1, sarcosine oxidase (Bacillus sp., UniProt P40859)
T1 sequence (P40859 1-390): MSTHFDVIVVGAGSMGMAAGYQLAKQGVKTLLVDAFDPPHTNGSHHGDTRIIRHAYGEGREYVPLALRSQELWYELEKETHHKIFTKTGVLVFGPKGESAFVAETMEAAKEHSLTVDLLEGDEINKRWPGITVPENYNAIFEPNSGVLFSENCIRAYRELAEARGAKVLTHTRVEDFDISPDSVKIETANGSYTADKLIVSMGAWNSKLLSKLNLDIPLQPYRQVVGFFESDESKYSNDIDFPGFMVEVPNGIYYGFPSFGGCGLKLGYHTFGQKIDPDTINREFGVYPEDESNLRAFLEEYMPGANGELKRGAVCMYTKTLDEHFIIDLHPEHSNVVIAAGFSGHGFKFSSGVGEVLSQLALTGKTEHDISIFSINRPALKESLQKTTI
Test: sarcosine oxidase activity on substrate at various pH (rate of change in absorbance per minute)
Assay type: biochemical
Settings: for Ratio (B/A): rate with N-ethyl glycine divided by rate with sarcosine
Protocol: Separate assays at various pH were conducted to determine the rate of change in absorbance per minute (ΔA/min) for sarcosine oxidase activity on its substrate sarcosine, and on N-ethyl glycine. The assay is based on the following reactions. [drawing 1]

Compound	rate of change in absorbance per minute (ΔA/min) for sarcosine oxidase activity (pH 6.5)	rate of change in absorbance per minute (ΔA/min) for sarcosine oxidase activity (pH 7.0)	rate of change in absorbance per minute (ΔA/min) for sarcosine oxidase activity (pH 7.5)	Ratio (B/A) (pH 6.5)	Ratio (B/A) (pH 7.0)	Ratio (B/A) (pH 7.5)
CNCC(=O)O [Sarcosine, sarcosine]	1.56 ΔA/min	2.20 ΔA/min	2.76 ΔA/min			
CCNCC(=O)O [N-Ethyl Glycine, N-ethyl glycine]	0.017 ΔA/min	0.053 ΔA/min	0.134 ΔA/min	0.011	0.024	0.048
